Converted amounts (≈) assume the structure as drawn. Counter-ions that a name gives are not always drawn. Like-named read-outs stand apart in the source and are kept apart here.
How the values were obtained:
S. pneumoniae 3227 = assay: In vitro antibacterial activity, MIC (clinical isolates); assay type: cell-based; details: Streptococcus pneumoniae; S. pneumoniae 3227, 10^6 cells/ml, clinical isolate
P. mirabilis IID 994 = assay: In vitro antibacterial activity, MIC (standard strain); assay type: cell-based; details: Proteus mirabilis, IID994, P. mirabilis IID 994, 10^6 cells/ml
E. coli ML4707 = assay: In vivo antibacterial activity against systemic infection in mice; details: Escherichia coli, ML4707, po, 1 h, E. coli ML4707, mice (ICR-S), intraperitoneal infection, oral at 1 hour after infection, read-out: ED50
Protocol: (§1) Experiment 2 In vivo antibacterial activity against systemic infection in mice (ICR-S)
(§2) The infections were produced by intraperitoneal infection of a suspension of the bacterial culture corresponding to the germ studied. The product was administered orally at 1 hour after the infection. The 50% effective dose (ED50) which protects 50% of the animals from death caused by the infection was determined from the relation between dosage and survival rate.

[1] = system: S. aureus IID 670 (Terajima); assay: In vitro antibacterial activity, MIC (standard strain); assay type: cell-based; details: Staphylococcus aureus, IID670, 10^6 cells/ml
S. pyogenes 3130 = assay: In vitro antibacterial activity, MIC (clinical isolates); assay type: cell-based; details: Streptococcus pyogenes; S. pyogenes 3130, 10^6 cells/ml, clinical isolate
[2] = system: Citrobacter freundii IID 976; assay: In vitro antibacterial activity, MIC (standard strain); assay type: cell-based; details: IID976
P. aeruginosa IFO 12689 = assay: as above; assay type: cell-based; details: Pseudomonas aeruginosa, IFO12689, P. aeruginosa IFO 12689, 10^6 cells/ml, standard strain; read-out: MIC
S. agalactiae 4368 = assay: In vitro antibacterial activity, MIC (clinical isolates); assay type: cell-based; details: Streptococcus agalactiae; S. agalactiae 4368, 10^6 cells/ml, clinical isolate
E. coli ATCC 10536 = assay: In vitro antibacterial activity, MIC (standard strain); assay type: cell-based; details: Escherichia coli, ATCC10536
S. agalactiae 4470 = assay: In vitro antibacterial activity, MIC (clinical isolates); assay type: cell-based; details: Streptococcus agalactiae; S. agalactiae 4470, 10^6 cells/ml, clinical isolate
B. distasonis 8503 = assay: In vitro antibacterial activity, MIC (standard strain); assay type: cell-based; details: Parabacteroides distasonis, B. distasonis 8503, 10^6 cells/ml
[3] = system: Staphylococcus aureus 209 P; assay: as above; assay type: cell-based; details: 10^6 cells/ml, read-out: MIC
[4] = system: Peptostreptococcus anaerobius KYA 27337; assay: as above; assay type: cell-based; details: KYA27337, Peptostreptococcus anaerobius KYA 27337, 10^6 cells/ml
[5] = system: Salmonella enteritidis IID 604; assay: as above; assay type: cell-based; details: Salmonella enterica; Salmonella enteritidis IID 604, 10^6 cells/ml, standard strain; read-out: MIC
S. faecalis IID 682 = assay: as above; assay type: cell-based; details: Enterococcus faecalis, IID682, S. faecalis IID 682, 10^6 cells/ml
[6] = system: Bacillus subtilis PCI 219; assay: as above; assay type: cell-based; details: PCI219; Bacillus subtilis PCI 219, 10^6 cells/ml, standard strain; read-out: MIC
[7] = system: Streptococcus pyogenes S-8; assay: as above; assay type: cell-based; details: S8, Streptococcus pyogenes S-8, 10^6 cells/ml
[8] = system: F. varium KYA (ATCC) 8501; assay: as above; assay type: cell-based; details: Fusobacterium varium, F. varium KYA (ATCC) 8501, 10^6 cells/ml
[9] = system: Escherichia coli NIHJ JC-2; assay: as above; assay type: cell-based; details: NIHJJC2, Escherichia coli NIHJ JC-2, 10^6 cells/ml
[10] = system: Proteus vulgaris IFO 3167; assay: as above; assay type: cell-based; details: Proteus vulgaris, IFO3167
Shigella sonnei IID 969 = assay: as above; assay type: cell-based; details: IID969, Shigella sonnei IID 969, 10^6 cells/ml
Protocol: The in vitro antibacterial activity has been investigated, the minimun inhibitory concentration (MIC) was determined in accordance with the method recommended by Japan Society of Chemotherapy.

[11] = system: Clostridium difficile I-E; assay: as above; assay type: cell-based; details: Clostridioides difficile, 10^6 cells/ml
B. fragilis 0558 = assay: as above; assay type: cell-based; details: Bacteroides fragilis; B. fragilis 0558, 10^6 cells/ml, standard strain; read-out: MIC
S. agalactiae 4394 = assay: In vitro antibacterial activity, MIC (clinical isolates); assay type: cell-based; details: Streptococcus agalactiae; S. agalactiae 4394, 10^6 cells/ml, clinical isolate
S. aureus Smith [12] = assay: MIC against the infecting strain (Table 2); assay type: cell-based; details: Staphylococcus aureus; S. aureus Smith (Table 2, part 5)
[13] = system: Propionibacterium acens 11828; assay: In vitro antibacterial activity, MIC (standard strain); assay type: cell-based; details: Propionibacterium acens 11828, 10^6 cells/ml
S. aureus Smith [14] = assay: In vivo antibacterial activity against systemic infection in mice; set-up: species or system mice (ICR-S); details: Staphylococcus aureus; S. aureus Smith, mice (ICR-S), intraperitoneal infection, oral at 1 hour after infection, challenge dose 3.5 x 10^5 cfu/mouse; read-out: ED50
Protocol: as §1, §2

[15] = system: Fusobacterium necrophorum S-45; assay: In vitro antibacterial activity, MIC (standard strain); assay type: cell-based; details: S45, Fusobacterium necrophorum S-45, 10^6 cells/ml
[16] = system: Eubacterium lentum GAI 5242; assay: as above; assay type: cell-based; details: Eggerthella lenta, GAI5242, Eubacterium lentum GAI 5242, 10^6 cells/ml
C. ramosum = assay: as above; assay type: cell-based; details: Thomasclavelia ramosa; C. ramosum, 10^6 cells/ml, standard strain; read-out: MIC
[17] = challenge dose 8.3 x 10^6 cfu/mouse (part 2)

SMILES | MIC (S. pneumoniae 3227) [µg/mL] | MIC (P. mirabilis IID 994) [µg/mL] | ED50 (E. coli ML4707; [17]) [mg/kg] | MIC [1] [µg/mL] | MIC (S. pyogenes 3130) [µg/mL] | MIC (P. aeruginosa IFO 12689) [µg/mL] | MIC (S. agalactiae 4368) [µg/mL] | MIC (S. agalactiae 4470) [µg/mL] | MIC [3] [µg/mL] | MIC [4] [µg/mL] | MIC [5] [µg/mL] | MIC (S. faecalis IID 682) [µg/mL] | MIC [6] [µg/mL] | MIC [7] [µg/mL] | MIC [8] [µg/mL] | MIC [9] [µg/mL] | MIC [10] [µg/mL] | MIC (Shigella sonnei IID 969) [µg/mL] | MIC [11] [µg/mL] | MIC (B. fragilis 0558) [µg/mL] | also measured
CC1CN(c2c(F)cc3c(=O)c(C(=O)O)cn(C4CC4)c3c2F)CCN1 (stereo not drawn) [Example 2, l-Cyclopropyl-6,8-difluoro-l,4-dihydro-7-(3-methyl-l-piperazinyl)-4-oxoquinoline-3-carboxylic acid] | 1.56 (≈ 4.29 µM) | 0.025 (≈ 0.0688 µM) | 0.17 | 0.2 (≈ 0.55 µM) | 0.78 (≈ 2.15 µM) | 0.78 (≈ 2.15 µM) | 0.78 (≈ 2.15 µM) | 0.78 (≈ 2.15 µM) | 0.2 (≈ 0.55 µM) | 1.56 (≈ 4.29 µM) | 0.025 (≈ 0.0688 µM) | 0.78 (≈ 2.15 µM) | 0.05 (≈ 0.138 µM) | 0.78 (≈ 2.15 µM) | 6.25 (≈ 17.2 µM) | ≤ 0.006 | 0.0125 (≈ 0.0344 µM) | 0.0125 (≈ 0.0344 µM) | 6.25 (≈ 17.2 µM) | 0.78 (≈ 2.15 µM) | ED50 (E. coli ML4707; challenge dose 6.0 x 10^6 cfu/mouse (part 1)): 0.09 mg/kg; MIC ([2]; Citrobacter freundii): 0.0125 µg/mL (≈ 0.0344 µM); MIC (E. coli ATCC 10536; E. coli ATCC 10536, 10^6 cells/ml, standard strain, read-out: MIC): ≤ 0.006 µg/mL; MIC (B. distasonis 8503): 1.56 µg/mL (≈ 4.29 µM); MIC (S. agalactiae 4394): 1.56 µg/mL (≈ 4.29 µM)
CC1CN(c2c(F)cc3c(=O)c(C(=O)O)cn(C4CC4)c3c2Cl)CCN1 (stereo not drawn) [Example 5, 8-Chloro-l-cyclopropyl-6-fluoro-1,4-dihydro-7-(3-methyl-1-piperazinyl)-4-oxoquinoline-3-carboxylic acid hydrochloride] | 0.78 | 0.025 | 0.12 | 0.1 | 0.39 | 1.56 | 0.39 | 0.78 | 0.1 | 0.39 | 0.025 | 0.39 | 0.025 | 0.39 | 3.13 | ≤ 0.006 | 0.0125 | 0.0125 | 3.13 | 0.2 | MIC (S. aureus Smith [12]): 0.1 µg/mL; MIC [13]: 0.39 µg/mL; MIC ([2]; Citrobacter freundii IID 976, 10^6 cells/ml, standard strain, read-out: MIC): 0.025 µg/mL; MIC (E. coli ATCC 10536): 0.0125 µg/mL; ED50 (S. aureus Smith [14]): 0.89 mg/kg; MIC [15]: 0.39 µg/mL; MIC [16]: 0.39 µg/mL; MIC (C. ramosum): 3.13 µg/mL; MIC (S. agalactiae 4394): 0.78 µg/mL

— patent EP0178388A1, “Quinolinecarboxylic acid derivatives” (KYORIN PHARMACEUTICAL CO., LTD., priority 1984, dated 1986)
